In patent publication US5977065A, “Bacterial nitroreductase for the reduction of CB1954 and analogues thereof to a cytotoxic form” (Cancer Research Campaign Technology Limited, priority 1991, dated 1999):

Legend:
V79 cells [1] = assay: Survival (colony forming ability) of V79 cells with enzyme-activated prodrugs (Table 8); format: cell-based
Experimental: (§1) Generation of cytotoxicity by the action of the E. coli nitroreductase of Example 1 upon the prodrugs 4-[bis(2-chloroethyl)amino]phenylcarbamic acid 4'-nitrobenzyl ester (I where R^1 NH2 =III) and N-4-nitrobenzyloxy-carbonyl-actinomycin D (V) are shown in Table 8.
(§2) The effect of enzyme-activated prodrugs on the survival of V79
(§3) cells. 1 ml volumes of V79 cells (2 × 10^5 /ml) were incubated
(§4) with prodrug, 500 μM NADH, and 10 μg/ml enzyme. After a 2 hour
(§5) incubation at 37° C., the cells were harvested and assayed for
(§6) their colony forming ability, and the supernatant assayed for
(§7) the concentration of remaining prodrug by HPLC.

E. coli B nitroreductase [2] = biological target: T1, E. coli B nitroreductase (Escherichia coli, UniProt P38489); assay: Formation of actinomycin D by the nitroreductase upon prodrug V (HPLC); format: biochemical; conditions: V 100 μM, 500 μM NADH, enzyme 2 μg/ml, pH7, 37° C.
T1 construct: endogenous in cells; host or cells: E. coli B cell paste; endogenous enzyme purified by Phenyl-Sepharose and Q-Sepharose chromatography, not recombinant
Experimental: Disappearance of the prodrug N-4-nitro-benzyloxycarbonyl-actinomycin D (V) and formation of actinomycin D during incubation with the E. coli B nitroreductase of Example 1 is shown in FIG. 2.

E. coli nitroreductase [3] = biological target: T2, E. coli nitroreductase (Escherichia coli, UniProt P38489); assay: % drug reduction in the V79 incubations, remaining prodrug by HPLC (Table 8); format: biochemical
T2 construct: endogenous in cells; host or cells: E. coli B cell paste; endogenous enzyme purified by Phenyl-Sepharose and Q-Sepharose chromatography, not recombinant
Experimental: as §1, §2, §3, §4, §5, §6, §7

[4] = In vivo toxicity of prodrug in mice; conditions: for Weight as % of Day 0, Day 2 / Weight as % of Day 0, Day 3 / Weight as % of Day 0, Day 7 / Weight as % of Day 0, Day 9: mice
Experimental: The actinomycin D prodrug (AMDPD) of formula V was tested for toxicity in mice. Groups of 3 mice were given 1, 10 or 100 mg/kg body weight i.p. of AMPD, and two further groups of 3 mice were given 1 and 10 mg/kg body weight i.p. of actinomycin D (AMD) dissolved in arachis oil. A further group of 3 mice were untreated, and a final group of 3 mice were given arachis oil i.p. only.
The body weight of the mice were monitored over 9 days. All mice treated with 10 mg/kg of AMD were dead by day 1. […] In practice, the toxicity of AMDPD is likely to be even lower, since the preparation of AMDPD used contains about 1% unconverted AMD.

E. coli nitroreductase [5] = biological target: T2, E. coli nitroreductase; assay: Enzymatic reduction of CB 1954 followed by HPLC; format: biochemical, E. coli B
Experimental: Enzymatic reduction of CB 1954. CB 1954 (100 μM and also containing [U-^3 H] C.B 1954 at 1.6×10^5 dpm per nmole), NADH or NAD(P)H (500 μM) were incubated with the active enzyme obtained as described in Example 1, (generally 2 μg/ml E. coli nitroreductase or 35 μg/ml Walker NAD(P)H dehydrogenase (quinone) EC 1.6.99.2) in 10 mM sodium phosphate buffer (pH 7) under either air or helium. At various times aliquots (10 μl) were injected onto a Partisphere SCX (110×4.7 mm) HPLC column and eluted isocratically (2 ml/min) with 100 mM NaH2 PO4.
(§8) The eluate was continuously monitored for adsorption at 310, 260 and 360 nm and the spectra of eluting components recorded using a diode-array detector. Samples (0.5 ml) were collected and the tritium activity of each determined by liquid scintillation counting. This separation system could resolve all the expected reduction products.
(§9) To confirm further the identity of any reduction products, the above reduction mixture was also injected onto an ODS-5 reverse phase HPLC column and eluted (1 ml/min) with a methanol gradient (0-30% linear over 30 min, 30-100% linear over 10 min.) in 0.1 M sodium phosphate buffer (pH 7).

E. coli nitroreductase [6] = biological target: T2, E. coli nitroreductase; assay: Substrate specificity: relative rate of NADH oxidation by HPLC (Table 5); format: biochemical; conditions: relative to CB 1954; 37° C. in air, NADH 500 μM, substrate 100 μM
Experimental: The ability of the E. coli nitroreductase of the invention to reduce nitro-compounds other than CB 1954 was determined by HPLC by following the decrease in the peak area of NADH resulting from its oxidation. The experiments were carried out as above but the aliquots were injected onto a Partisphere SAX (110×4.7 mm) HPLC column and eluted isocratically (1 ml/min) with 75 mM NaH2 PO4.
The relative rates of reduction of various nitrobenzamides and
nitrobenzenes with E. coli nitroreductase enzyme. Reduction
rates were determined by the resulting oxidation of NADH. All
reactions were carried out at 37° C. in air, with NADH (500
electron donor, at an initial substrate concentration of 100 μM.

[7] = biological target: T3, Walker NAD(P)H dehydrogenase (quinone) EC 1.6.99.2 (Rattus norvegicus, UniProt P05982); assay: Enzymatic reduction of CB 1954 followed by HPLC; format: biochemical; conditions: reduction of 50 μM of CB 1954
T3 construct: the enzyme isolated from the Walker tumour, EC.1.6.99.2; from tissue; host or cells: Walker tumour (Walker cell)
T3 sequence (P05982 2-274 limits assumed): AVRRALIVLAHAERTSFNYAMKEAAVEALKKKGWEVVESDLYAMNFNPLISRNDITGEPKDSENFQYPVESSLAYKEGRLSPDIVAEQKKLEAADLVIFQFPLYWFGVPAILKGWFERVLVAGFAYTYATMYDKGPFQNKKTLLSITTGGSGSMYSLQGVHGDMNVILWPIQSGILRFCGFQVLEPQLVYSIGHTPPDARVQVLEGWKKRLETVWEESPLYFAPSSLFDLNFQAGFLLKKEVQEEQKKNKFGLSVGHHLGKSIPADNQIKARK
Experimental: Enzymatic reduction of CB 1954. […] At various times aliquots (10 μl) were injected onto a Partisphere SCX (110×4.7 mm) HPLC column and eluted isocratically (2 ml/min) with 100 mM NaH2 PO4.
as §8, §9

E. coli B nitroreductase [8] = biological target: T1, E. coli B nitroreductase; assay: % drug reduction in the V79 incubations (Table 4); format: biochemical
Experimental: The effect of CB 1954 on the survival of V79 cells in the presence of the
(§10) E. coli B nitroreductase. All treatments were for 2 hours at 37°
(§11) cells were then plated out for their resulting colony-forming ability.
(§12) nitroreductase concentration was 2 μg/ml and NADH was used as a […]

V79 cells [9] = assay: Survival (colony-forming ability) of V79 cells treated with CB 1954 in the presence of E. coli B nitroreductase (Table 4); format: cell-based, Hamster
Experimental: as §10, §11, §12

E. coli B nitroreductase [10] = biological target: T1, E. coli B nitroreductase; assay: Enzyme kinetic and inhibition studies; format: biochemical
Experimental: Protein concentration was determined using the a conventional protein assay (Bio-Rad) calibrated against bovine serum albumin.

MAWI cells = assay: Survival (colony forming ability) of MAWI cells with enzyme-activated prodrugs (Table 7); format: cell-based, human; conditions: 500 μM NADH alone
Experimental: The effect of enzyme-activated prodrugs on the survival of MAWI
cells. 1 ml volumes of MAWI cells (2 × 10^5 /ml) were
with 50 μM prodrug, 500 μM NADH, and 10 μg/ml the enzyme of
Example 1. After a 2 hour incubation at 37° C., the cells were
harvested and assayed for their colony forming ability, and the
supernatant assayed for the concentration of remaining prodrug

[11] = biological target: T3, Walker NAD(P)H dehydrogenase (quinone) EC 1.6.99.2; assay: Enzyme kinetic studies; format: biochemical
Experimental: Quinone reductase activities were assayed by a spectrophotometric method using menadione as a substrate and cytochrome c as a terminal electron acceptor as described in Knox et al, Biochem. Pharmacol., 37, 4671-4677, 1988. Initial rates of reaction were determined by linear regression analysis (r>0.995) and kinetic parameters determined from the resulting plots as described by Roberts et al, Biochem. Pharmacol. 38, 4137-4143, 1989. Protein concentration was determined using the a conventional protein assay (Bio-Rad) calibrated against bovine serum albumin.
Kinetic parameters for the E. coli nitroreductase and Walker NAD(P)H, dehydrogenase (quinone) EC. […] The absolute rates of reduction of CB 1954 (i.e. under saturating conditions) by the two enzymes is their kcat values and this is 90 fold higher for the E. coli nitroreductase.

[12] = NR 10 μg/ml + 1 μM prodrug + 500 μM NADH
[13] = NR 2 μg/ml + 50 μM CB 1954, no NADH
[14] = NR 2 μg/ml + CB 1954 + 500 μM NADH

T1 sequence (P38489 whole entry): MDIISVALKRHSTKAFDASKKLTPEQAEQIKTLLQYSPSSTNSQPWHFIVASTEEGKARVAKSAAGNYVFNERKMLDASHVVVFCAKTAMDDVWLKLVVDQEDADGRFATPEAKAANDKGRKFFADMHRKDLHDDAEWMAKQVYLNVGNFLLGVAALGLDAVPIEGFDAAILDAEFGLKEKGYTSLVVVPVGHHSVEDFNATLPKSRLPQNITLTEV
T2 sequence (P38489 whole entry): as above

## Cc1c2oc3c(C)ccc(C(=O)NC4C(=O)NC(C(C)C)C(=O)N5CCCC5C(=O)N(C)CC(=O)N(C)C(C(C)C)C(=O)OC4C)c3nc-2c(C(=O)NC2C(=O)NC(C(C)C)C(=O)N3CCCC3C(=O)N(C)CC(=O)N(C)C(C(C)C)C(=O)OC2C)c(NC(=O)OCc2ccc([N+](=O)[O-])cc2)c1=O (centres unmarked) [V, N-4-Nitrobenzyloxycarbonyl-actinomycin D]
V79 cells [1]; 1 μM prodrug alone
  % SURVIVAL: 98.3%
V79 cells [1]; 10 μM prodrug alone
  % SURVIVAL: 39.3%
V79 cells [1]; [12]
  % SURVIVAL: 27.4%
E. coli B nitroreductase [2]
  release of actinomycin D from the prodrug: Only when the enzyme was present was actinomycin D released
E. coli nitroreductase [3]; 1 μM prodrug alone
  % DRUG REDUCTION: < 1.0%
E. coli nitroreductase [3]; 10 μM prodrug alone
  % DRUG REDUCTION: < 1.0%
E. coli nitroreductase [3]; [12]
  % DRUG REDUCTION: 90.5%
E. coli nitroreductase [3]; NR 10 μg/ml + 10 μM prodrug + 500 μM NADH
  % DRUG REDUCTION: 93%
[4]; dose 1.0 mg/kg i.p.
  Weight as % of Day 0, Day 2: 102%
  Weight as % of Day 0, Day 3: 101%
  Weight as % of Day 0, Day 7: 101%
  Weight as % of Day 0, Day 9: 103%
[4]; dose 10 mg/kg i.p.
  Weight as % of Day 0, Day 2: 109%
  Weight as % of Day 0, Day 3: 105%
  Weight as % of Day 0, Day 7: 108%
  Weight as % of Day 0, Day 9: 110%
[4]; dose 100 mg/kg i.p., groups of 3 mice, Day 2
  deaths: 1 dead
[4]; dose 100 mg/kg i.p.
  Weight as % of Day 0, Day 2: 96.4%
  Weight as % of Day 0, Day 3: 95.6%
  Weight as % of Day 0, Day 7: 95%
  Weight as % of Day 0, Day 9: 96%

## NC(=O)c1cc(N2CC2)c([N+](=O)[O-])cc1[N+](=O)[O-] [CB 1954, 5-(aziridin-1-yl)-2,4-dinitrobenzamide]
E. coli nitroreductase [5]; co-factor NAD(P)H or NADH, under helium
  rate of reduction of CB 1954 or product formation: the same
E. coli nitroreductase [5]; standard conditions
  nitroreductase more active per mg protein than NAD(P)H dehydrogenase (quinone), initial rates of 4-hydroxylamine formation: 31.2 fold
  nitroreductase more active than NAD(P)H dehydrogenase (quinone) by CB 1954 reduction: 62 fold
E. coli nitroreductase [5]; when 67 μM of CB 1954 was reduced
  4-hydroxylamine formed: 33 µM
E. coli nitroreductase [6]
  RELATIVE RATE OF NADH OXIDATION NR: 1.0
[7]
  4-hydroxylamine formed: 50 µM
E. coli B nitroreductase [8]; 50 μM CB 1954 alone
  % DRUG REDUCTION: < 1.0%
E. coli B nitroreductase [8]; NADH + CB 1954, no enzyme
  % DRUG REDUCTION: < 1.0%
E. coli B nitroreductase [8]; [13]
  % DRUG REDUCTION: < 1.0%
E. coli B nitroreductase [8]; [14]
  % DRUG REDUCTION: 72%
V79 cells [9]; 50 μM CB 1954, 2 hours 37° C.
  % SURVIVAL: 100%
V79 cells [9]; NADH + CB 1954, no enzyme, 2 hours 37° C.
  % SURVIVAL: 41%
V79 cells [9]; [13]
  % SURVIVAL: 99%
V79 cells [9]; [14]
  % SURVIVAL: 0.024%
E. coli B nitroreductase [10]; saturating conditions
  kcat for CB 1954 reduction higher for the E. coli nitroreductase than Walker enzyme: 90 fold

## NC(=O)C1=CN([C@@H]2O[C@H](COP(=O)(O)OP(=O)(O)OC[C@H]3O[C@@H](n4cnc5c(N)ncnc54)[C@H](O)[C@@H]3O)[C@@H](O)[C@H]2O)C=CC1 [NADH]
V79 cells [1]; 500 μM NADH alone
  % SURVIVAL: 100%
MAWI cells
  % SURVIVAL: 100%
V79 cells [9]; 500 μM NADH
  % SURVIVAL: 100%
[11]
  Km: 75 µM
E. coli B nitroreductase [10]
  Km of the nitroreductase for NADH less than the Walker enzyme: about 10 fold
